Patent publication US9475808B2, “Inhibitor compounds of phosphodiesterase type 10A” (AbbVie Deutschland GmbH & Co. KG, priority 2013, dated 2016)

Columns and labels:
PDE10A = PDE10A (UniProt Q9Y233); assay: Measurement of PDE activity (HTRF cAMP assay, recombinant enzyme); assay type: biochemical; details: 20 nM cyclic nucleotide substrate, 60 minutes at 29 C
Procedure: The recombinant PDE proteins are used in in vitro enzymatic reaction for measurement of PDE activity. These recombinant proteins, including PDE10A (human, rat and mouse PDE10) and isoforms of PDEs 1, 3, 4, and 5, were purchased from commercial vendor BPS Bioscience. The enzymatic activity of PDEs was determined by cAMP measurement kit from CisBio (IBA) using HTRF technology.
The PDE enzymatic reaction was carried out in assay buffer (20 mM Tris-HCl pH7.5, 10 mM MgCl2, 0.1% bovine serum albumin) containing enzyme and substrate. The PDE enzymes concentration ranged from 10 pM-250 pM, depending on each enzyme's specific activity. The substrate cyclic nucleotide (cAMP or cGMP) concentration used in the assay was 20 nM for PDE10, and 100 nM for other PDEs. The inhibitory effect of compound was determined by incubating various concentration of inhibitor in the enzymatic assay. Typically, compound was serial diluted in DMSO then further diluted in assay buffer. Next, the compound at varying concentration was mixed with PDE enzyme. The reaction was initiated by addition of cyclic nucleotide substrate, and incubated for 60 minutes at 29 C. The reaction was stopped by addition of lysis buffer from assay kit. The cAMP-d2 and anti-cAMP cryptate in the lysis buffer detected the level of cAMP left from the PDE hydrolysis reaction. The PDE activity is reversely correlated with the amount of cAMP left in the reaction and can be converted to the percent activity of an uninhibited control (100%). Thus, IC50 value of inhibitor can be obtained by plotting inhibitor concentration against PDE activity at that concentration.

[1] = Determination of the microsomal half-life / microsomal clearance, rat liver microsomes; details: 0.5 μM test substance, 0.25 mg microsomal protein/ml, pH 7.4, 37° C., NADPH
Procedure: (§1) The test substances were incubated in a concentration of 0.5 μM as follows:
(§2) 0.5 μM test substance are preincubated together with liver microsomes from different species (from rat, human or other species) (0.25 mg of microsomal protein/ml) in 0.05 M potassium phosphate buffer of pH 7.4 in microtiter plates at 37° C. for 5 min. The reaction is started by adding NADPH (1 mg/mL). After 0, 5, 10, 15, 20 and 30 min, 50 μl aliquots are removed, and the reaction is immediately stopped and cooled with the same volume of acetonitrile. The samples are frozen until analyzed. The remaining concentration of undegraded test substance is determined by MSMS. The half-life (T½) is determined from the gradient of the signal of test substance/unit time plot, it being possible to calculate the half-life of the test substance, assuming first order kinetics, from the decrease in the concentration of the compound with time. The microsomal clearance (mCl) is calculated from mCl=ln 2/T½/(content of microsomal protein in mg/ml)×1000 [ml/min/mg]

[2] = Determination of the microsomal half-life / microsomal clearance, human liver microsomes; details: 0.5 μM test substance, 0.25 mg microsomal protein/ml, pH 7.4, 37° C., NADPH
Procedure: as §1, §2

rats [3] = details: cited from earlier work
rats [4] = details: cited from earlier work; remark: listed apart in the source

Compound	IC50 (PDE10A)	Rat mCl [1]	Human mCl [2]	hyperactivity induced by PCP (rats [3]; PCP-induced)	reduction of amphetamine-induced hyperactivity (rats [3]; amphetamine-induced)	catalepsy on its own (rats [4]; alone)	cataleptic effect of the D2 receptor antagonist haloperidol (rats [4]; with haloperidol)
Cn1cc2c(c(-c3ccc(F)cc3)c1=O)C(=O)N(CCc1ccc3ccccc3n1)C2 [Example 27, 7-(4-Fluoro-phenyl)-5-methyl-2-(2-quinolin-2-yl-ethyl)-3,5-dihydro-2H-pyrrolo[3,4-c]pyridine-1,6-dione]	100 to 200 nM	++ (++: <100 μl min^−1 mg^−1)	+++ (+++ <10 μl min^−1 mg^−1)				
Cn1cc2c(c(-c3cncnc3)c1=O)C(=O)N(CCc1ccc3ccccc3n1)C2 [Example 28, 5-Methyl-7-pyrimidin-5-yl-2-(2-quinolin-2-yl-ethyl)-3,5-dihydro-2H-pyrrolo[3,4-c]pyridine-1,6-dione]	100 to 200 nM	++ (++: <100 μl min^−1 mg^−1)	++ (++: <100 μl min^−1 mg^−1)				
Cn1cc2c(c(-c3cn[nH]c3)c1=O)C(=O)N(CCc1ccc3ccccc3n1)C2 [Example 29, 5-Methyl-7-(1H-pyrazol-4-yl)-2-(2-quinolin-2-yl-ethyl)-3,5-dihydro-2H-pyrrolo[3,4-c]pyridine-1,6-dione]	> 500 nM	++ (++: <100 μl min^−1 mg^−1)	+++ (+++ <10 μl min^−1 mg^−1)				
COc1ccc(-c2c3c(cn(C)c2=O)CN(CCc2ccc4ccccc4n2)C3=O)cc1 [Example 31, 7-(4-Methoxy-phenyl)-5-methyl-2-(2-quinolin-2-yl-ethyl)-3,5-dihydro-2H-pyrrolo[3,4-c]pyridine-1,6-dione]	100 to 200 nM	++ (++: <100 μl min^−1 mg^−1)	++ (++: <100 μl min^−1 mg^−1)				
Cn1cc2c(c(-c3ccncc3)c1=O)C(=O)N(CCc1nc3ccccc3s1)C2 [Example 32, 2-[2-(1,3-benzothiazol-2-yl)ethyl]-5-methyl-7-(4-pyridyl)-3,5-dihydro-2H-pyrrolo[3,4-c]pyridine-1,6-dione]	> 500 nM	+++ (+++ <10 μl min^−1 mg^−1)	+++ (+++ <10 μl min^−1 mg^−1)				
Cn1cc2c(c(N3CCOCC3)c1=O)C(=O)N(CCc1nc3ccccc3s1)C2 [Example 33, 2-[2-(1,3-benzothiazol-2-yl)ethyl]-5-methyl-7-morpholin-4-yl-3,5-dihydro-2H-pyrrolo[3,4-c]pyridine-1,6-dione]	100 to 200 nM	+++ (+++ <10 μl min^−1 mg^−1)	+++ (+++ <10 μl min^−1 mg^−1)				
Cn1cc2c(c(N3CCOCC3)c1=O)C(=O)N(CC(F)(F)c1ccc3ccccc3n1)C2 [Example 34, 2-(2,2-Difluoro-2-quinolin-2-yl-ethyl)-5-methyl-7-morpholin-4-yl-3,5-dihydro-2H-pyrrolo[3,4-c]pyridine-1,6-dione]	< 100 nM	++ (++: <100 μl min^−1 mg^−1)	++ (++: <100 μl min^−1 mg^−1)				
COc1ccc(Cc2nccc3cc(OC)c(OC)cc23)cc1OC [Papaverine, papaverine]				reduced hyperactivity	insignificant	did not cause catalepsy on its own	potentiated the cataleptic effect
